# According to US5208236A, “N-(acylaminomethyl)glutaryl amino acids and use” (Schering Corporation, priority 1992, dated 1993):
# Legend:
# [1] = molecular target: neutral endopeptidase (NEP, EC 3.4.24.11) (Homo sapiens, UniProt P08473); experiment: NEP inhibition in vitro (IC50); type: biochemical
# Protocol: (§1) The ACE inhibitory activity of the compounds of the present invention is determined via in vitro tests using standard test procedures for ACE inhibition well known to those skilled in the art. Similarly, NEP inhibitory activity is determined via in vitro tests using standard test procedures for NEP inhibition well known to those skilled in the art.
# [2] = molecular target: angiotensin converting enzyme (ACE) (Homo sapiens, UniProt P12821); experiment: ACE inhibition in vitro (IC50); type: biochemical
# Chain of angiotensin converting enzyme (ACE) (P12821 30-1306, species assumed): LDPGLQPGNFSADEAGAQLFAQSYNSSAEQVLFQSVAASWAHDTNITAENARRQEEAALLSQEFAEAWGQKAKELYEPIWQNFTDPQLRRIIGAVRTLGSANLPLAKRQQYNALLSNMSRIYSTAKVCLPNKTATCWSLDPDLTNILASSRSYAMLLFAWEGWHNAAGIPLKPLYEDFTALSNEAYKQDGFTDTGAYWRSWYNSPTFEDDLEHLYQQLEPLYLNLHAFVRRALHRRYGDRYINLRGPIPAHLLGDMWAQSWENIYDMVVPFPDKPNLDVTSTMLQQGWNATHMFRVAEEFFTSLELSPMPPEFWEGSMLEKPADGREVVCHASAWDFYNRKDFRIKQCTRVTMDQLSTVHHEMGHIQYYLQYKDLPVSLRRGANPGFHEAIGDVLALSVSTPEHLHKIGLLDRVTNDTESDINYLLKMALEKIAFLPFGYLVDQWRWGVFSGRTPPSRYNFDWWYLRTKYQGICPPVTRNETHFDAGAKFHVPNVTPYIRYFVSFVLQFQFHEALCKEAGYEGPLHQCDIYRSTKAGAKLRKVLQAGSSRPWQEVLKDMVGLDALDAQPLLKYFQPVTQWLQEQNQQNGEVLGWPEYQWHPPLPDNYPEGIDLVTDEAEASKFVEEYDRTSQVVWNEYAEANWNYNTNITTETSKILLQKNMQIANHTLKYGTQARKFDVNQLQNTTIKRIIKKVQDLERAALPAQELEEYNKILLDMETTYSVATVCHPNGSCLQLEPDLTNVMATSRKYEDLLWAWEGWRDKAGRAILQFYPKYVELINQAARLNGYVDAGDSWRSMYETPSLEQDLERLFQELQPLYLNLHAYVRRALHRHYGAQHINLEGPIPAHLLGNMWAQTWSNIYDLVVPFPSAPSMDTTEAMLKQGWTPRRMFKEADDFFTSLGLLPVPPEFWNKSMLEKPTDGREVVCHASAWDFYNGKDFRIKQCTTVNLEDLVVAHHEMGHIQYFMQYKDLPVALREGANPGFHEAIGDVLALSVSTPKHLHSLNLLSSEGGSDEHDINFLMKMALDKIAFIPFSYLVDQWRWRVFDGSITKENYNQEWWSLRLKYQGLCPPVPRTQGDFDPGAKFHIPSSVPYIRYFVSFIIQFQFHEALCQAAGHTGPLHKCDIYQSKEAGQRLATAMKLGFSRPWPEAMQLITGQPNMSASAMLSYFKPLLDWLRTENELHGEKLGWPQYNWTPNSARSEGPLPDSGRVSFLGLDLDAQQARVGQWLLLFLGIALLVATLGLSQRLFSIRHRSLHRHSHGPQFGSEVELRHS
# Protocol: as §1
# [3] = test system: angiotensin I (AI) challenge; experiment: A1 Challenge Assay; type: in vivo, male Sprague-Dawley rats
# Chain of neutral endopeptidase (NEP, EC 3.4.24.11) (P08473 whole entry, species assumed): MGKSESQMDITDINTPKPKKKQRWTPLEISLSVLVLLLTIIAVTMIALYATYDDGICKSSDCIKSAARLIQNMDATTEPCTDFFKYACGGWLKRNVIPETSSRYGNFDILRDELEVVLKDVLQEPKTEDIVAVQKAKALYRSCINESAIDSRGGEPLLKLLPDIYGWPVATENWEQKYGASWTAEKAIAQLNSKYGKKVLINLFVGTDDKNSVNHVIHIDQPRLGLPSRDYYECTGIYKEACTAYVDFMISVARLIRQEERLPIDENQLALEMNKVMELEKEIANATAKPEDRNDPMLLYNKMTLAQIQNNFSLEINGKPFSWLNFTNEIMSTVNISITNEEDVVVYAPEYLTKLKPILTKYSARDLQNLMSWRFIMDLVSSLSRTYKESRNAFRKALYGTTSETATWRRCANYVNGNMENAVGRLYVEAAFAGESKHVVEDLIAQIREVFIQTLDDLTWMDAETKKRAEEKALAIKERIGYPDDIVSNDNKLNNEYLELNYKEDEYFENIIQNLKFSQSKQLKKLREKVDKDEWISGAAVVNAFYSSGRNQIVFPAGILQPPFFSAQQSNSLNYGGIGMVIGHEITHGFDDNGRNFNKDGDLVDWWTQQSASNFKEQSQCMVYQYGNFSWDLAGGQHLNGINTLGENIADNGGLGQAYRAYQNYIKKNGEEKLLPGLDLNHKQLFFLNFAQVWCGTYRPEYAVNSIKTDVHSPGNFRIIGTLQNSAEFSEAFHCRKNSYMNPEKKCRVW
IC50 [1] [nM],IC50 [2] [nM],SMILES,A1 Chall. (% inhibition) ([3]; dose 30 sc) [%],A1 Chall. (% inhibition) ([3]; dose 10 sc) [%]
2,450,CN(C)C(=O)N[C@@H](CCCCNC(=O)OCc1ccccc1)C(=O)NC[C@H](CC1(C(=O)N[C@@H](Cc2ccc(O)cc2)C(=O)O)CCCC1)C(=O)O [CbzNH C(O) (CH3)2 NH],88,–
8,15,COC(=O)N[C@@H](CCCCNC(=O)OCc1ccccc1)C(=O)NC[C@H](CC1(C(=O)N[C@@H](Cc2ccc(O)cc2)C(=O)O)CCCC1)C(=O)O [CbzNH C(O) CH3 O],49,–
2,2,O=C(NCCCC[C@H](NC(=O)N1CCOCC1)C(=O)NC[C@H](CC1(C(=O)N[C@@H](Cc2ccc(O)cc2)C(=O)O)CCCC1)C(=O)O)OCc1ccccc1 [CbzNH C(O) drawing 38],–,–
1,1,CN(C)S(=O)(=O)N[C@@H](CCCCNC(=O)OCc1ccccc1)C(=O)NC[C@H](CC1(C(=O)N[C@@H](Cc2ccc(O)cc2)C(=O)O)CCCC1)C(=O)O [CbzNH SO2 (CH3)2 NH],–,–
2,40,CS(=O)(=O)N(CCCNC(=O)OCc1ccccc1)CC(=O)NC[C@H](CC1(C(=O)N[C@@H](Cc2ccc(O)cc2)C(=O)O)CCCC1)C(=O)O [CbzNH SO2 CH3],–,100
1,15,CN(C)C(=O)N[C@@H](CCCCN)C(=O)NC[C@H](CC1(C(=O)N[C@@H](Cc2ccc(O)cc2)C(=O)O)CCCC1)C(=O)O [NH2 C(O) (CH3)2 NH],–,–
33,60,COC(=O)N[C@@H](CCCCN)C(=O)NC[C@H](CC1(C(=O)N[C@@H](Cc2ccc(O)cc2)C(=O)O)CCCC1)C(=O)O [NH2 C(O) CH3 O],92,–
9,8,NCCCC[C@H](NC(=O)N1CCOCC1)C(=O)NC[C@H](CC1(C(=O)N[C@@H](Cc2ccc(O)cc2)C(=O)O)CCCC1)C(=O)O [NH2 C(O) drawing 39],–,–
32,–,CN(C)S(=O)(=O)N[C@@H](CCCCN)C(=O)NC[C@H](CC1(C(=O)N[C@@H](Cc2ccc(O)cc2)C(=O)O)CCCC1)C(=O)O [NH2 SO2 (CH3)2 NH],–,–
1,6,CS(=O)(=O)N(CCCN)CC(=O)NC[C@H](CC1(C(=O)N[C@@H](Cc2ccc(O)cc2)C(=O)O)CCCC1)C(=O)O [NH2 SO2 CH3],81,–
